Measurements reported in article PMC4577959 (Journal of the American Chemical Society, 2015).
pKd: −log10 of the molar value.

Assays:
[1] = molecular target: N2B peptide (NHR2-binding motif of E-proteins) (Homo sapiens, UniProt Q99081); details: ratio of Kd values, FP assay with flu-N2B
[2] = molecular target: fluorescein-labeled N2B peptide (NHR2-binding motif of E-proteins); test: fluorescence polarisation

Row | Molecule | enhanced affinity versus the native NHR2 coiled coil [1] [fold] | pKd [2]
1 | CC[C@H](C)[C@@H]1NC(=O)[C@H](CO)NC(=O)[C@H](CCCNC(=N)N)NC(=O)[C@H](Cc2c[nH]c3ccccc23)NC(=O)[C@@H](NC(=O)[C@H](CCC(=O)O)NC(C)=O)CSSC[C@@H](C(=O)N[C@@H](CCCNC(=N)N)C(N)=O)NC(=O)[C@H](CC(C)C)NC(=O)[C@H](CCC(=O)O)NC(=O)[C@@H](NC(=O)[C@H](CC(C)C)NC(=O)[C@H](Cc2c[nH]cn2)NC(=O)[C@H](Cc2c[nH]c3ccccc23)NC(=O)[C@H](CC(C)C)NC(=O)[C@H](CCC(=O)O)NC(C)=O)CCCCn2cc(nn2)COCc2cn(nn2)CCCC[C@@H](C(N)=O)NC(=O)[C@H](CC(C)C)NC(=O)[C@H](C(C)C)NC(=O)[C@H](CCCNC(=N)N)NC1=O [CHD^DS-NHR2-3] | 5 | 
2 | GST-NHR2(482–551), native Nervy homology two (NHR2) coiled coil domain of AML1-ETO (domain or fragment) |  | 3.45
